# Patent publication US6972343B1, “Quaternary bis-ammonium salt precursors and their uses as prodrugs having an antiparasitic activity” (CNRS, priority 1999, dated 2005)
# Several values for one entry are separate records, joined by “and”; a condition that tells them apart may be missing. Identical values can stand only once. Counter-ions that a name gives are not always drawn. Like-named read-outs stand apart in the source and are kept apart here. Marks after values point to notes of the source that are not given here.
# Tests used:
# P. falciparum = assay: Antimalarial activity against P. falciparum in vitro (Desjardins [3H]hypoxanthine incorporation); assay type: cell-based
# Procedure: FIG. 1, the anti-malarial action of a precursor of thiazolium (designated by TE4c in the examples), and corresponding thiazolium (T4) as a function of the concentration of drug, according to the Desjardins test, (Desjardins R. E. et al, Antimicrob. Agents Chemother. 1979, 16, 710-718),
# The IC50 measurements are determined vis-à-vis P. falciparum according to the Desjardins method in which the incorporation of [^3H] hypoxanthine (FIG. 1) into the nucleic acids is an indicator of cell viability. In each case, optical microscopy controls are carried out.
# (§1) The IC50 is the concentration which inhibits by 50% the in vitro growth of P. falciparum: the LD50 is the lethal dose corresponding to the death of 50% of the mice and the ED50 is the effective dose for inhibiting by 50% the in vivo growth of P. vinckei according to a 4-day suppressive test, TI corresponds to the therapeutic index, TI=LD50 (semi-chronic)/ED50; ip: intraperitoneal administration; po: per os.
# [1] = Tolerance in the mouse: LD50 after acute or semi-chronic administration; assay type: in vivo; conditions: for Oral absorption index (LD50 po/LD50 ip ratio, acute): acute administration; for LD50 / LD50 at 4 days: in vivo; for LD50 / In vivo LD50 (mg/kg) (mouse) acute: single dose; for LD50 at 4 days / In vivo LD50 (mg/kg) (mouse) semi-chronic: twice per day for 4 consecutive days
# Description: (§2) B) Antimalarial Activity in vivo Against a Mouse Infected by P. vinckei and Tolerance After Administration in Acute or Semi-chronic Conditions.
# as §1
# P. vinckei = assay: animal or person; assay type: in vivo; conditions: mouse, 4-day suppressive test, TE4c in 50/50 PEG/castor oil; for ED50: Plasmodium vinckei, 96 h, read-out: In vivo ED50 (mg/kg) (P. vinckei)
# Description: as §2, §1
# [2] = Pharmacokinetics / serum level in the mouse (ex vivo bio-test on P. falciparum)
# Procedure: The results of the pharmacokinetic parameters after administration by intraperitoneal or oral route in a mouse for a prodrug of disulphice type (TS3b) and a prodrug of thioester type (TE4c) are presented hereafter.
# (§3) For determination of the serum level, bio-tests are used ex vivo: briefly, the medicament is administered to the animal, then repeated blood samples are taken. The sera are decomplemented for 30 minutes at 56° C. The active metabolite content is then determined by incubation of different concentrations (dichotomic dilution) of each serum, in the presence of suspensions of erythrocytes infected by P. falciparum, according to the DESJARDINS method with [^3H] hypoxanthine.
# The results are expressed in IS50, which corresponds to the percentage of serum (containing an active metabolite) capable of inhibiting the growth of P. falciparum by 50%.
# This value is then converted into a serum concentration, (usually expressed in ng/ml) by testing the active compound directly (without passing through the animal), on the same suspension infected by P. falciparum and by determining its IC50 value (in ng/ml) [serum level=IC50] (in ng/ml)×100/IS50 (in %)].
# (§4) The results are expressed as the log (serum level of medicaments), as a function of time, which allows the evaluation of the half-time for distribution to the serum compartment t1/2(d); the half-time for elimination of the serum compartment (t1/2(e)); of C0), corresponding to the serum level originally extrapolated during the elimination phase; the AUC (which indicates the quantity of drug circulating in the blood stream); and the relative bio-availability in the oral route administration method, as against the intraperitoneal route method [AUC (po)/AUC (ip)] which is an indicator of the degree of absorption by oral route.
# [3] = test system: P. falciparum (FVO strain); assay: Antimalarial activity against Plasmodium falciparum in the Aotus monkey; assay type: in vivo; conditions: Aotus monkeys
# Procedure: 3 Aotus monkeys were infected with P. falciparum (FVO strain). When the blood parasitemia reached 1% (2 monkeys) or 6% (1 monkey), treatment by intramuscular route at a rate of 2 injections per day of TE4c (2mg/kg), for 8 days, was carried out.
# [4] = Pharmacokinetics in the monkey (ex vivo bio-test serum level); conditions: Macaca fascicularis, intramuscular 4 mg/kg
# Procedure: as §3
# The results are expressed in IS50, which corresponds to the percentage of serum (containing an active metabolite) capable of inhibiting the growth of P. falciparum by 50%. […]
# as §4, with “route. […]” for “route.”
# Babesia divergens = assay: Antibabesiasis activity in vitro against Babesia divergens; assay type: cell-based
# Procedure: (§5) The products TE4c, TS3b and P1 were also evaluated in vitro for their activities against Babesia divergens and B. canis.
# B. canis = assay: Antibabesiasis activity in vitro against B. canis; assay type: cell-based
# Procedure: as §5
# [5] = in vitro growth of P. falciparum, [3H]hypoxanthine incorporation, 48 hours test, read-out: IC50
# [6] = ip, TE4c value corresponds to death of only 25% of the mice, read-out: In vivo LD50 (mg/kg) (mouse) semi-chronic
# [7] = po, read-out: In vivo LD50 (mg/kg) (mouse) semi-chronic
# [8] = ip, TE4c value corresponds to death of only 25% of the mice
# [9] = 3 mg/kg ip and 50 mg/kg po, both routes
# [10] = ip 3 mg/kg TE4c, active metabolite considered to be T4
# [11] = oral 50 mg/kg TE4c, active metabolite considered to be T4
# [12] = oral route, higher dose series (150 mg/kg po)
compound,measurement,setting,value
"1,12-decamethylene bis[4-methyl-5-(2-methoxyethyl)thiazolium] diiodide [T4]",IC50,P. falciparum; [5],0.65 nM
"1,16-hexadecamethylenebis[4-methyl-5-(2-methoxyethyl)thiazolium] diiodide [T8]",IC50,P. falciparum; [5],1.1 nM
"2,15-(N,N′-diformyl-N,N′-dibenzyl)diamino-1,16-S-thiobenzoyl-hexadeca-1,15-diene [TE16]",IC50,P. falciparum; [5],12 nM
"C[N+]1(CCCCCCCCCCCCCCCC[N+]2(C)CCCC2)CCCC1 [G25, 1,16-hexadecamethylene bis-(N-methylpyrrolidinium), reference compound]",IC50,P. falciparum; Plasmodium falciparum,0.6 nM
same,"Oral absorption index (LD50 po/LD50 ip ratio, acute)",[1],87
same,LD50,[1]; ip,1.27 mg/kg
same,LD50 at 4 days,[1]; [6],1.15 mg/kg
same,LD50,[1]; po,130 mg/kg
same,LD50 at 4 days,[1]; [7],65 mg/kg
same,ED50,P. vinckei; ip,0.22 mg/kg
same,ED50,P. vinckei; po,~15 mg/kg
"CC(Cl)CCCN(C)CCCCCCCCCCCCCCCCN(C)CCCC(C)Cl (stereo not shown) [P2, N,N′-dimethyl-N,N′-(4-chloropentyl)-1,16-hexadecanediamine hydrochloride]",IC50,P. falciparum; [5],0.5 nM
"Cc1c(CCO)sc[n+]1CCCCCCCCCCCC[n+]1csc(CCO)c1C.[Br-].[Br-] [T3, 1,12-dodecamethylene bis [4-methyl-5-(2-hydroxyethyl)thiazolium] dibromide]",IC50,P. falciparum; [5],2.25 nM
same,"Oral absorption index (LD50 po/LD50 ip ratio, acute)",[1],70
same,In vivo LD50 (mg/kg) (mouse) acute,[1]; ip,10 mg/kg
same,In vivo LD50 (mg/kg) (mouse) semi-chronic,[1]; [8],7.5 mg/kg
same,In vivo LD50 (mg/kg) (mouse) acute,[1]; po,700 mg/kg
same,In vivo LD50 (mg/kg) (mouse) semi-chronic,[1]; po,160 mg/kg
"Cc1csc[n+]1CCCCCCCCCCCC[n+]1cscc1C [T6, 1,12-dodecamethylenebis(4-methylthiazolium) diiodide]",IC50,P. falciparum; [5],3 nM
"Cc1c(CCOCCCCCCOCCc2sc[n+](Cc3ccccc3)c2C)sc[n+]1Cc1ccccc1 [T10, 3,10-dioxadodecamethylenebis[5-(1-benzyl, 4-methyl)-thiazolium] dibromide]",IC50,P. falciparum; [5],2.5 nM
"CCOC(=O)CCc1c(CCCCCCCCCCCCc2sc[n+](Cc3ccccc3)c2CCC(=O)OCC)sc[n+]1Cc1ccccc1 [T13, dodecamethylenebis[5-(1-benzyl-4-ethoxycarbonylethyl)-thiazolium] dibromide]",IC50,P. falciparum; [5],250 nM
"c1ccc(Cc2csc[n+]2CCCCCCCCCCCC[n+]2cscc2Cc2ccccc2)cc1 [T16, dodecamethylenebis[4-(1-benzyl)-thiazolium] dibromide]",IC50,P. falciparum; [5],10 nM
"CC(=C1CCOC(=O)S1)N(C=O)CCCCCCCCCCCCN(C=O)C(C)=C1CCOC(=O)S1 [TE3, N,N′-diformyl-N,N′-di[1(2-oxo-4,5-dihydro-1,3-oxathian-4-ylidene)ethyl]1,12-diaminododecane]",IC50,P. falciparum; [5],3 nM and 2.6 nM
"COCCC(SC(=O)c1ccccc1)=C(C)N(C=O)CCCCCCCCCCCCN(C=O)C(C)=C(CCOC)SC(=O)c1ccccc1 [TE4c, N,N′-diformyl-N,N′-di[1-methyl-2-S-thiobenzoyl-4-methoxybut-1-enyl]-1,12-diaminododecane]",IC50,P. falciparum; [5],2 nM
same,"Oral absorption index (LD50 po/LD50 ip ratio, acute)",[1],˜10
same,In vivo LD50 (mg/kg) (mouse) acute,[1]; ip,100 mg/kg
same,In vivo LD50 (mg/kg) (mouse) semi-chronic,[1]; [8],≧30^d mg/kg
same,In vivo LD50 (mg/kg) (mouse) acute,[1]; po,˜1000 mg/kg
same,In vivo LD50 (mg/kg) (mouse) semi-chronic,[1]; po,˜300 mg/kg
same,In vivo ED50 (mg/kg) (P. vinckei),P. vinckei; ip,1 mg/kg
same,time of first serum level peak,[2]; [9],in less than two hours
same,time of second serum level peak,[2]; [9],around 15 hours
same,relative bioavailability [AUC (po)/AUC (ip)],[2]; 50 mg/kg po vs 3 mg/kg ip,5%
same,time of second serum level peak,[2]; higher doses 10 mg/kg ip and 150 mg/kg po,around 23 hours
same,AUC,[2]; [10],3.3 µg·h/mL
same,C0,[2]; [10],180 ng/mL
same,t1/2,[2]; [10],12 h
same,AUC,[2]; [11],2.7 µg·h/mL
same,C0,[2]; [11],130 ng/mL
same,C0,[2]; [12],1000 ng/mL
same,t1/2,[2]; [12],around 10 hours
same,recurrence of parasitemia after treatment,[3]; 6 months following the treatment,no further occurrence was observed in the 6 months following the treatment
same,blood parasitemia after treatment,"[3]; parasitemia 1% or 6% at start, im 2 mg/kg, 2 injections per day, 8 days",completely eliminated
"CCN(CC)Cc1ccc(C(=O)SC(CCOC)=C(C)N(C=O)CCCCCCCCCCCCN(C=O)C(C)=C(CCOC)SC(=O)c2ccc(CN(CC)CC)cc2)cc1 [TE4f, N,N′-diformyl-N,N′-di[1-methyl-2-S-(p-diethylaminomethylphenylcarboxy)-thio-4-methoxybut-1-enyl]-1,12-diaminododecane]",IC50,P. falciparum; [5],2.3 nM
"COCCC(SC(=O)c1ccc(CN2CCOCC2)cc1)=C(C)N(C=O)CCCCCCCCCCCCN(C=O)C(C)=C(CCOC)SC(=O)c1ccc(CN2CCOCC2)cc1 [TE4g, N,N′-diformyl-N,N′-di[1-methyl-2-S-(p-morpholino-methylphenylcarboxy)-thio-4-methoxybut-1-enyl]-1,12-diaminododecane]",IC50,P. falciparum; [5],2.3 nM
"COc1ccc(C(=O)SC(CCOCCCCCCOCCC(SC(=O)c2ccc(OC)cc2)=C(C)N(C=O)Cc2ccccc2)=C(C)N(C=O)Cc2ccccc2)cc1 [TE10, 2,17-(N,N′-diformyl-N,N′-dibenzyl)diamino-3,16-S-thio-p-methoxybenzoyl-6,13-dioxaoctadeca-2,16-diene]",IC50,P. falciparum; [5],12 nM
"CCOC(=O)CC(=C(CCCCCCCCCCCCC(SC(=O)c1ccccc1)=C(CC(=O)OCC)N(C=O)Cc1ccccc1)SC(=O)c1ccccc1)N(C=O)Cc1ccccc1 [TE13, ethyl 3,18-(N,N′-diformyl-N,N′-dibenzyl)diamino-4,17-S-thiobenzoyleicosa-3,17-dienedioate]",IC50,P. falciparum; [5],650 nM
"CCCSSC(CCO)=C(C)N(C=O)CCCCCCCCCCCCN(C=O)C(C)=C(CCO)SSCCC [TS3b, N,N′-diformyl-N,N′-di[1-methyl-2-propyl-dithio-4-hydroxybut-1-enyl]-1,12-diaminododecane]",IC50,"P. falciparum; Plasmodium falciparum, in vitro growth of P. falciparum, [3H]hypoxanthine incorporation, 48 hours test, read-out: IC50",1.3 nM
same,"Oral absorption index (LD50 po/LD50 ip ratio, acute)",[1],6.7
same,LD50 at 4 days,"[1]; ip, infected mice, ip, read-out: In vivo LD50 (mg/kg) semi-chronic in mice infected with malaria",32 mg/kg
same,LD50,[1]; ip,240 mg/kg
same,LD50 at 4 days,[1]; [6],90 mg/kg
same,LD50,[1]; po,1600 mg/kg
same,LD50 at 4 days,[1]; [7],410 mg/kg
same,ED50,P. vinckei; ip,~7 mg/kg
same,ED50,P. vinckei; po,~180 mg/kg
same,time of first serum level peak,[4],in less than two hours
same,IC50,Babesia divergens,< 20 nM
same,IC50,B. canis,< 20 nM
"N,N′-diformyl-N,N′-di[1-methyl-2-S-(p-phthaloyl)-thio-4-methoxybut-1-enyl]-1,12-diaminododecane [TE4j]",IC50,P. falciparum; [5],2.7 nM
"N,N′-dimethyl-N,N′-(5-chloropentyl)-1,16-hexadecane diamine hydrochloride [P1]",IC50,P. falciparum; [5],1.7 nM
